Results taken from patent publication EP4778924A1 (Huons Co., Ltd., priority 2023, dated 2025).
Where a name gives a salt, the structure may show the parent alone.

Molecular target: T1, Proton Pump (H^+,K^+-ATPase) (Sus scrofa, UniProt P19156)
T1 construct: gastric vesicles were isolated from porcine stomachs; from tissue; host or cells: porcine stomach (gastric vesicles)
Test: Inhibitory activity on proton pump (H+,K+-ATPase) activity, porcine gastric vesicles, malachite green readout
Type: biochemical
Conditions: for IC50: porcine gastric vesicles, pH 6.5, 8 mM KCl, 0.2 mM ATP; for inhibitory activity against proton pump activity: result in words
Description: Specifically, gastric vesicles were isolated from porcine stomachs, and the protein content of the vesicles was quantified using a BSA kit (Bio-Rad, 5000205). All reactions were performed in 96-well plates with a reaction volume of […] containing 100 ng of vesicles. 10 mM valinomycin and the test compound were added to reaction buffer (50 mM Tris-HEPES, 5 mM MgCl2, 8 mM KCl, pH 6.5) containing porcine gastric vesicles at various concentrations, and the mixture was incubated at 37°C for 30 minutes. DMSO or test compounds at different concentrations were added after diluting them to a final DMSO concentration of 0.1%. 0.2 mM adenosine triphosphate (ATP) was then added to the reaction buffer and incubated at 37°C for 20 minutes. The reaction was stopped with 0.2% Tween 20, followed by the addition of malachite green (Sigma Aldrich, MAK307) and incubation at room temperature for 30 minutes. The optical density (OD) value was measured at 620 nm using a microplate reader (Spectramax M5e, Molecular devices). The percent (%) inhibition was derived from the OD values of the control group and various concentrations of the test compounds. The IC50 of the test compounds was analyzed using nonlinear regression using the GraphPad Prism8 program using the % inhibition value at each concentration.

T1 sequence (P19156 2-1034 limits assumed): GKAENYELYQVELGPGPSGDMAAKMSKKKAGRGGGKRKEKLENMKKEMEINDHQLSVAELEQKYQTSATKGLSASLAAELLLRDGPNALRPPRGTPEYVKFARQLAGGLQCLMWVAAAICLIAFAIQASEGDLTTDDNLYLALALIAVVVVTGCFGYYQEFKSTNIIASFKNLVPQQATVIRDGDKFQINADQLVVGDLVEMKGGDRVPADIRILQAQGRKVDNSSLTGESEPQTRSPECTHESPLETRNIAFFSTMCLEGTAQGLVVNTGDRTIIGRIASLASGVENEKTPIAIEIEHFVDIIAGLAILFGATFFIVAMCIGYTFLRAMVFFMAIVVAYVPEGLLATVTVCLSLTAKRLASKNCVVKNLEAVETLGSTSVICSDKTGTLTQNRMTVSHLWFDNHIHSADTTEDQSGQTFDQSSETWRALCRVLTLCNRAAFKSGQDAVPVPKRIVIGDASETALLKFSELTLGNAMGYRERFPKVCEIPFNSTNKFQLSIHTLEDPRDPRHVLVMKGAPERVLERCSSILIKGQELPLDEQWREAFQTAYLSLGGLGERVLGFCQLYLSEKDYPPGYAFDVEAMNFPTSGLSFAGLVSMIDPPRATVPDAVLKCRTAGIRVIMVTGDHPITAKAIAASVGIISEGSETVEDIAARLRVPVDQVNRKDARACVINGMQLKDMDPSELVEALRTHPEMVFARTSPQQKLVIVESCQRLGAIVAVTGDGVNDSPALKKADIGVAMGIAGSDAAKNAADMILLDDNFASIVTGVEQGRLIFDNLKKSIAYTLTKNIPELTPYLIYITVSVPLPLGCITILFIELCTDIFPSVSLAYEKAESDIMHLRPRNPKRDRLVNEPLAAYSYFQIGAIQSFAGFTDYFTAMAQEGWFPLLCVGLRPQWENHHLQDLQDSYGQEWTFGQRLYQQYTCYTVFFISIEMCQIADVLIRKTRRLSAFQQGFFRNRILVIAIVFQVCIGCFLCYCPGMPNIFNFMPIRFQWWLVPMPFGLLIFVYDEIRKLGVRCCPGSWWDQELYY
T1 sequence (P18434 whole entry partner): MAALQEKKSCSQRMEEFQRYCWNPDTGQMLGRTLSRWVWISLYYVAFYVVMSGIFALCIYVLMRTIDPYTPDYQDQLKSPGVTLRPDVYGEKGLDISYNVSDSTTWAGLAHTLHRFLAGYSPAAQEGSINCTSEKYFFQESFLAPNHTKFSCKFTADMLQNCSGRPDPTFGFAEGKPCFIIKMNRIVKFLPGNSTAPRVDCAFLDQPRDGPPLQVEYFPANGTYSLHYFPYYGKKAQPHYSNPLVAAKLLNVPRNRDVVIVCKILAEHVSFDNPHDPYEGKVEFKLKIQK

SMILES	IC50 [nM]	inhibitory activity against proton pump activity
Cc1cccc(C)c1CNc1cc(Br)cn2c(C)c(C)nc12 [Comparative Example 1, reference compound]	100 to 500	weak inhibitory activity
COC(=O)c1cc(NCc2c(C)cccc2C)c2nc(C)c(C)n2c1 [Comparative Example 2, reference compound]	> 500	weak inhibitory activity
Cc1cccc(C)c1CNc1cc(NC(=O)C2CCCC2)cn2c(C)c(C)nc12 [Example 1, N-(8-((2,6-dimethylbenzyl)amino)-2,3-dimethylimidazo[1,2-a]pyridin-6-yl)cyclopentanecarboxamide]	100 to 500	
Cc1cccc(C)c1CNc1cc(NC(=O)C2CC2)cn2c(C)c(C)nc12 [Example 2, N-(8-((2,6-dimethylbenzyl)amino)-2,3-dimethylimidazo[1,2-a]pyridin-6-yl)cyclopropanecarboxamide]	100 to 500	
Cc1cccc(C)c1CNc1cc(NC(=O)C2CCCCC2)cn2c(C)c(C)nc12 [Example 3, N-(8-((2,6-dimethylbenzyl)amino)-2,3-dimethylimidazo[1,2-a]pyridin-6-yl)cyclohexanecarboxamide]	> 500	
Cc1cccc(C)c1CNc1cc(NC(=O)C2CCC2)cn2c(C)c(C)nc12 [Example 5, N-(8-((2,6-dimethylbenzyl)amino)-2,3-dimethylimidazo[1,2-a]pyridin-6-yl)cyclobutanecarboxamide]	100 to 500	
Cc1cccc(C)c1CNc1cc(NC(=O)N2CCC2)cn2c(C)c(C)nc12 [Example 6, N-(8-((2,6-dimethylbenzyl)amino)-2,3-dimethylimidazo[1,2-a]pyridin-6-yl)azetidine-1-carboxamide]	50 to 100	
Cc1cccc(C)c1CNc1cc(NC(=O)C(C)C)cn2c(C)c(C)nc12 [Example 7, N-(8-((2,6-dimethylbenzyl)amino)-2,3-dimethylimidazo[1,2-a]pyridin-6-yl)isobutyramide]	100 to 500	
Cc1cccc(C)c1CNc1cc(NC(=O)C(C)(C)C)cn2c(C)c(C)nc12 [Example 8, N-(8-((2,6-dimethylbenzyl)amino)-2,3-dimethylimidazo[1,2-a]pyridin-6-yl)pivalamide]	> 500	
Cc1cccc(C)c1CNc1cc(NC(=O)C(F)F)cn2c(C)c(C)nc12 [Example 9, N-(8-((2,6-dimethylbenzyl)amino)-2,3-dimethylimidazo [1,2-a]pyridin-6-yl)-2,2-difluoroacetamide]	> 500	
Cc1cccc(C)c1CNc1cc(NC(=O)CN)cn2c(C)c(C)nc12.Cl [Example 10, 2-amino-N-(8-((2,6-dimethylbenzyl)amino)-2,3-dimethylimidazo[1,2-a]pyridin-6-yl)acetamide hydrochloride]	< 50	excellent inhibitory properties
Cc1cccc(C)c1CNc1cc(NC(=O)N2CCCC2)cn2c(C)c(C)nc12 [Example 11, N-(8-((2,6-dimethylbenzyl)amino)-2,3-dimethylimidazo[1,2-a]pyridin-6-yl)pyrrolidine-1-carboxamide]	100 to 500	
Cc1cccc(C)c1CNc1cc(NC(=O)C23CC(C2)C3)cn2c(C)c(C)nc12 [Example 12, N-(8-((2,6-dimethylbenzyl)amino)-2,3-dimethylimidazo[1,2-a]pyridin-6-yl)bicyclo[1.1.1]pentane-1-carboxamide]	100 to 500	
CCC(=O)Nc1cc(NCc2c(C)cccc2C)c2nc(C)c(C)n2c1 [Example 13, N-(8-((2,6-dimethylbenzyl)amino)-2,3-dimethylimidazo[1,2-a]pyridin-6-yl)propionamide]	50 to 100	
Cc1cccc(C)c1CNc1cc(NC(=O)c2ncco2)cn2c(C)c(C)nc12 [Example 14, N-(8-((2,6-dimethylbenzyl)amino)-2,3-dimethylimidazo[1,2-a]pyridin-6-yl)oxazole-2-carboxamide]	100 to 500	
Cc1cccc(C)c1CNc1cc(NC(=O)C(C)(F)F)cn2c(C)c(C)nc12 [Example 16, N-(8-((2,6-dimethylbenzyl)amino)-2,3-dimethylimidazo[1,2-a]pyridin-6-yl)-2,2-difluoropropanamide]	100 to 500	
Cc1cccc(C)c1CNc1cc(NC(=O)C2CC(F)C2)cn2c(C)c(C)nc12 (stereo not drawn) [Example 17, N-(8-((2,6-dimethylbenzyl)amino)-2,3-dimethylimidazo[1,2-a]pyridin-6-yl)-3-fluorocyclobutane-1-carboxamide]	100 to 500	

SMILES	IC50 [nM]	inhibitory activity against proton pump activity
Cc1cccc(C)c1CNc1cc(NS(=O)(=O)C2CCC2)cn2c(C)c(C)nc12 [Example 18, N-(8-((2,6-dimethylbenzyl)amino)-2,3-dimethylimidazo[1,2-a]pyridin-6-yl)cyclobutanesulfonamide]	> 500	
Cc1cccc(C)c1CNc1cc(NC(=O)[C@H](C)N)cn2c(C)c(C)nc12 [Example 19, (S)-2-amino-N-(8-((2,6-dimethylbenzyl)amino)-2,3-dimethylimidazo[1,2-a]pyridin-6-yl)propanamide hydrochloride]	50 to 100	
Cc1cccc(C)c1CNc1cc(NC(=O)[C@@H](C)N)cn2c(C)c(C)nc12 [Example 20, (R)-2-amino-N-(8-((2,6-dimethylbenzyl)amino)-2,3-dimethylimidazo[1,2-a]pyridin-6-yl)propanamide hydrochloride]	50 to 100	
CCNC(=O)Nc1cc(NCc2c(C)cccc2C)c2nc(C)c(C)n2c1 [Example 22, 1-(8-((2,6-dimethylbenzyl)amino)-2,3-dimethylimidazo[1,2-a]pyridin-6-yl)-3-ethylurea]	50 to 100	
Cc1cccc(C)c1CNc1cc(NC(=O)NC2CCC2)cn2c(C)c(C)nc12 [Example 23, 1-cyclobutyl-3-(8-((2,6-dimethylbenzyl)amino)-2,3-dimethylimidazo[1,2-a]pyridin-6-yl)urea hydrochloride]	50 to 100	
Cc1cccc(C)c1CNc1cc(NC(=O)NC2CC2)cn2c(C)c(C)nc12.Cl [Example 24, 1-cyclopropyl-3-(8-((2,6-dimethylbenzyl)amino)-2,3-dimethylimidazo[1,2-a]pyridin-6-yl)urea hydrochloride]	< 50	excellent inhibitory properties
CC(=O)OCC(=O)Nc1cc(NCc2c(C)cccc2C)c2nc(C)c(C)n2c1 [Example 25, 2-((8-((2,6-dimethylbenzyl)amino)-2,3-dimethylimidazo[1,2-a]pyridin-6-yl)amino)-2-oxoethyl acetate]	100 to 500	
Cc1cccc(C)c1CNc1cc(NC(=O)C(C)(C)N)cn2c(C)c(C)nc12 [Example 27, 2-amino-N-(8-((2,6-dimethylbenzyl)amino)-2,3-dimethylimidazo[1,2-a]pyridin-6-yl)-2-methylpropanamide hydrochloride]	50 to 100	
Cc1cccc(C)c1CNc1cc(N2CCC2=O)cn2c(C)c(C)nc12 [Example 28, 1-(8-((2,6-dimethylbenzyl)amino)-2,3-dimethylimidazo[1,2-a]pyridin-6-yl)azetidin-2-one]	> 500	
Cc1cccc(C)c1CNc1cc(NC(=O)NC23CC(C2)C3)cn2c(C)c(C)nc12 [Example 29, 1-(bicyclo[1.1.1]pentan-1-yl)-3-(8-((2,6-dimethylbenzyl)amino)-2,3-dimethylimidazo[1,2-a]pyridin-6-yl)urea hydrochloride]	> 500	
Cc1cccc(C)c1CNc1cc(NC(=O)NCC2CC2)cn2c(C)c(C)nc12 [Example 30, 1-(cyclopropylmethyl)-3-(8-((2,6-dimethylbenzyl)amino)-2,3-dimethylimidazo[1,2-a]pyridin-6-yl)urea hydrochloride]	100 to 500	
Cc1cccc(C)c1CNc1cc(NC(=O)NC(C)C)cn2c(C)c(C)nc12 [Example 31, 1-(8-((2,6-dimethylbenzyl)amino)-2,3-dimethylimidazo[1,2-a]pyridin-6-yl)-3-isopropylurea hydrochloride]	100 to 500	
CCN(C)C(=O)Nc1cc(NCc2c(C)cccc2C)c2nc(C)c(C)n2c1 [Example 32, 3-(8-((2,6-dimethylbenzyl)amino)-2,3-dimethylimidazo[1,2-a]pyridin-6-yl)-1-ethyl-1-methylurea hydrochloride]	50 to 100	
CNC(=O)Nc1cc(NCc2c(C)cccc2C)c2nc(C)c(C)n2c1 [Example 33, hydrochloride]	< 50	excellent inhibitory properties
CCOC(=O)CC(=O)Nc1cc(NCc2c(C)cccc2C)c2nc(C)c(C)n2c1 [Example 34, ethyl 3-((8-((2,6-dimethylbenzyl)amino)-2,3-dimethylimidazo[1,2-a]pyridin-6-yl)amino)-3-oxopropanoate]	> 500	
Cc1cccc(C)c1CNc1cc(NC(=O)[C@@H]2CCN2)cn2c(C)c(C)nc12 [Example 35, (S)-N-(8-((2,6-dimethylbenzyl)amino)-2,3-dimethylimidazo[1,2-a]pyridin-6-yl)azetidine-2-carboxamide hydrochloride]	50 to 100	
Cc1cccc(C)c1CNc1cc(NC(=O)[C@H]2CCN2)cn2c(C)c(C)nc12 [Example 36, (R)-N-(8-((2,6-dimethylbenzyl)amino)-2,3-dimethylimidazo[1,2-a]pyridin-6-yl)azetidine-2-carboxamide hydrochloride]	50 to 100	
